Test results taken from ChEMBL document CHEMBL1129381, “Novel (R)-2-amino-5-fluorotetralins: dopaminergic antagonists and inverse agonists” (J Med Chem, 1996).

Key:
[1] = target: T1, 5-hydroxytryptamine receptor 1A (Rattus norvegicus, UniProt P19327); assay: Inhibition of [3H]8-OH-DPAT binding to 5-hydroxytryptamine 1A receptor
T1 sequence (P19327 whole entry): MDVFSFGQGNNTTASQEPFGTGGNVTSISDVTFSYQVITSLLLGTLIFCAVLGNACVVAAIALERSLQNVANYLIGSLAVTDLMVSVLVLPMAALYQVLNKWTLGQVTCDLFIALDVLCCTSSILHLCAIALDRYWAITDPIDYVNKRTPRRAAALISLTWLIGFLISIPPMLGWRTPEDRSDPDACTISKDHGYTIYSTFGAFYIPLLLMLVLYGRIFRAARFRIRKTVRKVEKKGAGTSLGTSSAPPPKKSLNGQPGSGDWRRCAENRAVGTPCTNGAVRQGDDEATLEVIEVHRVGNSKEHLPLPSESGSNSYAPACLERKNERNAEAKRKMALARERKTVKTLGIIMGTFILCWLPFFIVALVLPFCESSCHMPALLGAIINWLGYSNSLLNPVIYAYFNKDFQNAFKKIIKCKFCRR

D(2) dopamine receptor [2] = target: T2, D(2) dopamine receptor (Homo sapiens, UniProt P14416); assay: Hill coefficients for [3H]-raclopride binding to dopamine D2 receptor high-and low-affinity agonist states
D(2) dopamine receptor [3] = target: T2, D(2) dopamine receptor
D(2) dopamine receptor [4] = target: T2, D(2) dopamine receptor; remark: listed apart in the source
D(3) dopamine receptor [5] = target: T3, D(3) dopamine receptor (Homo sapiens, UniProt P35462)
D(3) dopamine receptor [6] = target: T3, D(3) dopamine receptor; remark: listed apart in the source
D(2) dopamine receptor [7] = target: T2, D(2) dopamine receptor; assay: Inhibition of [3H]raclopride binding to Dopamine receptor D2

T3 sequence (P35462 whole entry): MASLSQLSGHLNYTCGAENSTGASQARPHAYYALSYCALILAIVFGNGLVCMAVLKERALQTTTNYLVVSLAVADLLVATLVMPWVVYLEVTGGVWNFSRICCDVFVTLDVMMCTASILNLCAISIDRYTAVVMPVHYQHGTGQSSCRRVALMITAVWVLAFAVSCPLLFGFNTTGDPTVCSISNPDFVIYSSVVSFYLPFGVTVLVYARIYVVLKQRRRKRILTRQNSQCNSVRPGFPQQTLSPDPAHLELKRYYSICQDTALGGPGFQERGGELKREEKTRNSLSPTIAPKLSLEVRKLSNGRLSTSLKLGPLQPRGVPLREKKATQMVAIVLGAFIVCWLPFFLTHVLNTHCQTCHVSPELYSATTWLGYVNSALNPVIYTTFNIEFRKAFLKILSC
T2 sequence (P14416 whole entry): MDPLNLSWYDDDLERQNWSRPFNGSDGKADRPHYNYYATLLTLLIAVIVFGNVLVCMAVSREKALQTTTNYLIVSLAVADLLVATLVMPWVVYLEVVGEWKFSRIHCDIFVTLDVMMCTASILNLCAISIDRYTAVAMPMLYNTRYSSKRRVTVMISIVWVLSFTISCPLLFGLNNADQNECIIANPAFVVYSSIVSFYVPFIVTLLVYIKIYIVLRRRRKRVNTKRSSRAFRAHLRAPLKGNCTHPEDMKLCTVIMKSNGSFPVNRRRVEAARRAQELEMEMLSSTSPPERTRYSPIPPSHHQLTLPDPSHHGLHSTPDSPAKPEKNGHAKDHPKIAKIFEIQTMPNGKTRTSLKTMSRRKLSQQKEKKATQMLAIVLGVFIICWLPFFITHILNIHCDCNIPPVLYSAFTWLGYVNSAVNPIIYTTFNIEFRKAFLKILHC

SMILES: CCCN[C@@H]1CCc2c(F)cccc2C1
- Ki [1]: 108 nM
- nH (D(2) dopamine receptor [2]): 0.86
- Ki (D(2) dopamine receptor [3]): 167 nM
- Ki (D(2) dopamine receptor [4]): 582 nM
- Ki (D(3) dopamine receptor [5]): 35.8 nM
- nH (D(3) dopamine receptor [6]): 0.92

SMILES: NCCc1ccc(O)c(O)c1
- nH (D(2) dopamine receptor [2]): 0.66

SMILES: CCCCN(CCC)[C@@H]1CCc2c(F)cccc2C1
- Ki [1]: 44.5 nM
- nH (D(2) dopamine receptor [2]): 0.91
- Ki (D(2) dopamine receptor [3]): 45.6 nM
- Ki (D(2) dopamine receptor [4]): 210 nM
- Ki (D(3) dopamine receptor [5]): 4.42 nM
- nH (D(3) dopamine receptor [6]): 0.98

SMILES: CCCN(CCC)[C@@H]1CCc2c(F)cccc2C1
- Ki [1]: 30.2 nM
- nH (D(2) dopamine receptor [2]): 0.89
- Ki (D(2) dopamine receptor [3]): 26 nM
- Ki (D(2) dopamine receptor [4]): 201 nM
- Ki (D(3) dopamine receptor [5]): 8.62 nM
- nH (D(3) dopamine receptor [6]): 1.03

SMILES: CCCN(Cc1ccccc1)[C@@H]1CCc2c(F)cccc2C1
- Ki [1]: 28.8 nM
- nH (D(2) dopamine receptor [2]): 0.86
- Ki (D(2) dopamine receptor [3]): 179 nM
- Ki (D(2) dopamine receptor [4]): 415 nM
- Ki (D(3) dopamine receptor [5]): 23.8 nM
- nH (D(3) dopamine receptor [6]): 0.92

SMILES: CCCN(C(C)C)[C@@H]1CCc2c(F)cccc2C1
- Ki [1]: 644 nM
- nH (D(2) dopamine receptor [2]): 0.94
- Ki (D(2) dopamine receptor [3]): 1530 nM
- Ki (D(2) dopamine receptor [4]): 4720 nM
- Ki (D(3) dopamine receptor [5]): 199 nM
- nH (D(3) dopamine receptor [6]): 0.91

SMILES: N[C@@H]1CCc2c(F)cccc2C1
- Ki [1]: 525 nM
- nH (D(2) dopamine receptor [2]): 0.81
- Ki (D(2) dopamine receptor [3]): 585 nM
- Ki (D(2) dopamine receptor [4]): 864 nM
- Ki (D(3) dopamine receptor [5]): 150 nM
- nH (D(3) dopamine receptor [6]): 0.99

SMILES: Fc1cccc2c1CC[C@@H](NCc1ccccc1)C2
- Ki [1]: 494 nM
- nH (D(2) dopamine receptor [2]): 0.81
- Ki (D(2) dopamine receptor [3]): 779 nM
- Ki (D(2) dopamine receptor [4]): 2830 nM
- Ki (D(3) dopamine receptor [5]): 1050 nM
- nH (D(3) dopamine receptor [6]): 0.88

SMILES: CC(C)N[C@@H]1CCc2c(F)cccc2C1
- Ki [1]: 627 nM
- nH (D(2) dopamine receptor [2]): 0.88
- Ki (D(2) dopamine receptor [4]): 5940 nM
- Ki (D(3) dopamine receptor [5]): 1450 nM
- nH (D(3) dopamine receptor [6]): 0.9

SMILES: CCCN(CCCCN1C(=O)CC2(CCCC2)CC1=O)[C@@H]1CCc2c(F)cccc2C1
- Ki [1]: 0.246 nM
- nH (D(2) dopamine receptor [2]): 0.87
- Ki (D(2) dopamine receptor [7]): 16.9 nM
- Ki (D(2) dopamine receptor [3]): 4.94 nM
- Ki (D(3) dopamine receptor [5]): 0.251 nM
- nH (D(3) dopamine receptor [6]): 0.92

SMILES: CCCCN[C@@H]1CCc2c(F)cccc2C1
- Ki [1]: 440 nM
- nH (D(2) dopamine receptor [2]): 0.93
- Ki (D(2) dopamine receptor [3]): 254 nM
- Ki (D(2) dopamine receptor [4]): 790 nM
- Ki (D(3) dopamine receptor [5]): 158 nM
- nH (D(3) dopamine receptor [6]): 0.79

SMILES: O=C1CC2(CCCC2)CC(=O)N1CCCCN[C@@H]1CCc2c(F)cccc2C1
- Ki [1]: 6.46 nM
- nH (D(2) dopamine receptor [2]): 0.88
- Ki (D(2) dopamine receptor [7]): 68.2 nM
- Ki (D(2) dopamine receptor [3]): 37 nM
- Ki (D(3) dopamine receptor [5]): 4.94 nM
- nH (D(3) dopamine receptor [6]): 0.88
